This note sets out measurements from ChEMBL document CHEMBL1142502, “An endoplasmic reticulum (ER) stress-suppressive compound and its analogues from the mushroom Hericium erinaceum” (Bioorg Med Chem, 2008).

Calls of active or inactive are those of the source. No cut-off for these calls is given here.

What all share (type): functional, cell-based
In experiment [1] the test system is N2a. The experiment can be described thus: Protection against thapsigargin-induced endoplasmic reticulum stress-dependent mouse Neuro2a cells death upto 10 ug/ml after 24 hrs by MTT assay. In general terms: Formazan colour is commonly taken as a measure of viable cells.
Experiment [2] has as its system N2a. The experiment can be described thus: Protection against tunicamycin-induced endoplasmic reticulum stress-dependent mouse Neuro2a cells death upto 10 ug/ml after 24 hrs by MTT assay.
Experiment [3] concerns N2a. Kind of experiment: Protection against thapsigargin-induced endoplasmic reticulum stress-dependent mouse Neuro2a cells death after 24 hrs by MTT assay.
Experiment [4] relates to N2a. The experiment can be described thus: Protection against tunicamycin-induced endoplasmic reticulum stress-dependent mouse Neuro2a cells death after 24 hrs by MTT assay.

For `COc1cc2c(c3c1CCC(C)(CC(=O)C=C(C)C)O3)COC2=O` (racemic), the result in the experiment on N2a [1] and in the experiment on N2a [2] was inactive.

`CCCCCCCCCCCCCCCC(=O)OCc1cc(OC)c2c(c1C=O)O[C@@](C)(CC(=O)C=C(C)C)[C@@H](O)C2` (relative stereo): the Activity result in the experiment with N2a [3] and with N2a [4] was “Dose-dependent effect” throughout.

Consider `COc1cc2c(c(O)c1C/C=C(\C)CCC=C(C)C)C(=O)OC2`, for which the outcome in the experiment on N2a [1] and in the experiment with N2a [2] was inactive.
